According to patent US20030069169A1, “Co-administration of melanocortin receptor agonist and phosphodiesterase inhibitor for treatment of cyclic-AMP associated disorders” (priority 2001, published 2003):

Experiments:
human MC-1R = molecular target: T1, human MC-1R (Homo sapiens, UniProt Q01726); assay: MC-1R cAMP SPA assay in HBL cells; assay type: cell-based; conditions: read-out: potency as agonist of the MC-1R
T1 construct: HBL cells, a human melanoma cell line licensed from Prof; G. Ghanem; endogenous in cells; host or cells: HBL human melanoma cells
Procedure: HBL cells, a human melanoma cell line licensed from Prof. G. Ghanem (Lab. of Oncology & Exp. Surgery, Free University of Brussels, Brussels, Belgium) were used as a source of the human MC-1R. cAMP was measured using the cAMP SPA Direct Screening Assay System from Amersham (RPA 559). 20,000 HBL cells were plated into each well of a half-area 96 well white plate and were used between 16-48 hours after plating. Cells were incubated at 37° C. for 15 minutes in 25 μM IBMX to inhibit phosphodieterase activity. As per kit instructions, Assay Buffer Concentrate was diluted 1 to 50 with dH2O to prepare Assay Buffer (50 mM acetate buffer containing 0.01% sodium azide). Vials containing rabbit anti-succinyl cAMP serum and the tracer, adenosine 3′,5′-cyclic phosphoric acid 2′-0-succinyl-3-[^125I] iodotyrosine methyl ester, were resuspended with 7.5 ml Assay Buffer. SPA anti-rabbit reagent (donkey anti-rabbit IgG coupled to SPA PVT beads) was resuspended with 15 ml Assay Buffer. All reagents were stored at 4° C. after reconstitution. Melanocortin ligands or compounds were prepared in DMSO and added to the IBMX-treated cells as 100×concentrated stocks. […] Plates were subsequently counted for 6 minutes per sample in a TopCount scintillation reader with background subtraction. Data was analyzed in relation to a cAMP standard curve.

[1] = tested on: LPS-induced TNF-α production; assay: endotoxin-induced TNF-α accumulation model in Balb/C mice; assay type: in vivo; conditions: for % Inhibition of LPS-induced TNF-α levels: balb/C mice, rolipram 10 ug/kg, NDP-MSH 2.5 mg/kg, alone or combined, co-administered with LPS by tail vein injection
Procedure: Melanocortin receptor agonists and cAMP-PDE inhibitors were evaluated for anti-inflammatory activity in vivo by using an endotoxin-induced TNF-α accumulation model in Balb/C mice. Compounds were administered either by s.c injection or co-injected with endotoxin in the tail vein. Both rolipram and melanocortin agonists inhibit endotoxin-induced TNF-α accumulation in this model.
FIG. 1 reports the results of administration of the compound of Example 11, below, in this model. Example 11 was administered by s.c. injection to five mice for each dose of 1.2 μmol/kg, 3.7 μmol/kg, 11.1 μmol/kg, 33.3 μmol/kg, and 100 μmol/kg. The compound was administered 1 hour prior to the LPS-induced challenge.
A second experiment was conducted in which the effect of the cAMP-PDE inhibitor rolipram and the melanocortin receptor agonist NDP-MSH was determined.
The four bar graphs of FIG. 2 reflect the inhibition in LPS-induced TNF-α a production in balb/C mice upon administration of (1) no agent (control); (2) 10 ug/kg ROLIPRAM (3) 2.5 mg/kg NDP-MSH and (4) 10 ug/kg ROLIPRAM in combination with 2.5 mg/kg NDP-MSH. Compounds were co-administered with LPS by tail vein injection. […] Administration of 2.5 mg/kg NDP-MSH inhibited TNF-α levels by 64%.

T1 sequence (Q01726 whole entry): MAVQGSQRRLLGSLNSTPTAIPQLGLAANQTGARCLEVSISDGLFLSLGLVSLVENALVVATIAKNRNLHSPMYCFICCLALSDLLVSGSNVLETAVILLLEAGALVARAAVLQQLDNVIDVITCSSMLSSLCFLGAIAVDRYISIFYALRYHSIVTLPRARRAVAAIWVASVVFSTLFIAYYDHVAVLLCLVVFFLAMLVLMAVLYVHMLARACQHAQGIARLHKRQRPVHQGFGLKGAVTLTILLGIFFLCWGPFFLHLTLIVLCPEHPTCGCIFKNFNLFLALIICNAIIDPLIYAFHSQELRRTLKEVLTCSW

Molecule | EC50 (human MC-1R) [nM] | % Inhibition of LPS-induced TNF-α levels [1] [%] | inhibition of endotoxin-induced TNF-α accumulation (in words) ([1]; Balb/C mice, s.c. injection or co-injected with endotoxin in the tail vein)
CCCC(=O)C1(c2ccccc2)CCN(C(=O)[C@@H](Cc2ccc(OC)cc2)NC(=O)[C@@H](N)Cc2cncn2C)CC1 [Example 11] | ~20 |  | 
NDP-MSH |  | 64 | 
COc1ccc(C2CNC(=O)C2)cc1OC1CCCC1 (stereo not shown) [Rolipram] |  | 47 | inhibit
